Assay results reported in patent publication US4812465A, “Triazole derivatives for use as antimycotic agents” (CL Pharma Aktiengesellschaft, priority 1986, dated 1989).

Tests used:
[1] = tested on: Trichophyton verrucosum; assay: In vitro determination of minimum inhibitory concentration (MIC), serial dilution; assay type: cell-based; conditions: 336 h, pH 6, Trichophyton verrucosum, pH 6.0, 22° C., 14 days
Protocol: (§1) The antimycotic activities of the compounds were measured by in vitro determination of the minimum inhibitory concentration (MIC) for yeasts, molds and dermatophytes.
(§2) 6 dermatophytes, 2 yeasts and 4 molds were used for testing with fungi, as follows:
(§3) The minimum inhibitory concentration (MIC) was determined in serial dilution tests in test tubes. The volume of the liquid nutrient medium in each test tube was 4.5 ml.
(§4) The substances were dissolved in DMSO and diluted with sterile distilled water to 10 concentrations (100, 50, 25, 12.5, 6.25, 3.12, 1.56, 0.78, 0.39 and 0.19 μg/ml). 0.5 ml of each of these dilution steps was added to liquid nutrient medium. Thus, a constant concentration of solvent in all the nutrient media was ensured, irrespective of the active compound concentration.
(§5) A comparison solution which contained only the solvent in appropriate concentration was included when carrying out each of the tests.
(§6) The individual strains were maintained on Sabouraud/beerwort agar slants and, before they were used in a test, they underwent a passage on a modified Sabouraud liquid nutrient medium. The strains were then harvested, washed and converted into a suspension of McFaerland 3 in the case of yeasts and molds and of McFaerland 4-5 in the case of dermatophytes.
(§7) The amount of material inoculated (inoculum) was 100 μl/test tube (inoculated densities: yeasts about 10^3 /ml, molds about 10^4 /ml, dermatophytes about 10^4 /ml). The pH of the liquid nutrient medium was 6.0. After inoculation had taken place the fungi were incubated at 22° C. for 14 days.
(§8) The MIC was then determined. The concentration step at which growth was no longer visible on macroscopic inspection was used for the determination of the MIC. The comparison substance used was 1-(2-(2,4-dichlorophenyl)-2-(2,4-dichlorophenylmethoxy)ethyl)-1H-imidazole(compound A).

[2] = tested on: Microsporum gypseum; assay: as above; assay type: cell-based; conditions: Nannizzia gypsea, 336 h, pH 6, Microsporum gypseum; pH 6.0, 22° C., 14 days; read-out: MIC Mi.gyp
Protocol: as §1, §2, §3, §4, §5, §6, §7, §8

[3] = tested on: Candida tropicalis; assay: as above; assay type: cell-based; conditions: 336 h, pH 6, Candida tropicalis, pH 6.0, 22° C., 14 days, read-out: MIC C.trop
Protocol: as §1, §2, §3, §4, §5, §6, §7, §8

[4] = tested on: Mucor mucedo plus; assay: as above; assay type: cell-based; conditions: Mucor mucedo, 336 h, pH 6, Mucor mucedo plus; pH 6.0, 22° C., 14 days
Protocol: as §1, §2, §3, §4, §5, §6, §7, §8

[5] = tested on: Candida albicans; assay: as above; assay type: cell-based; conditions: 336 h, pH 6, Candida albicans, pH 6.0, 22° C., 14 days, read-out: MIC C.alb
Protocol: as §1, §2, §3, §4, §5, §6, §7, §8

[6] = tested on: Trichophyton mentagrophytes; assay: as above; assay type: cell-based; conditions: 336 h, pH 6, Trichophyton mentagrophytes, pH 6.0, 22° C., 14 days
Protocol: as §1, §2, §3, §4, §5, §6, §7, §8

[7] = tested on: Absidia ramosa; assay: as above; assay type: cell-based; conditions: Lichtheimia ramosa, 336 h, pH 6, Absidia ramosa; pH 6.0, 22° C., 14 days
Protocol: as §1, §2, §3, §4, §5, §6, §7, §8

[8] = tested on: Aspergillus fumigatus; assay: as above; assay type: cell-based; conditions: 20160 min, pH 6
Protocol: as §1, §2, §3, §4, §5, §6, §7, §8

[9] = tested on: Mucor mucedo minus; assay: as above; assay type: cell-based; conditions: Mucor mucedo, 336 h, pH 6, Mucor mucedo minus; pH 6.0, 22° C., 14 days
Protocol: as §1, §2, §3, §4, §5, §6, §7, §8

[10] = tested on: Trichophyton rubrum; assay: as above; assay type: cell-based; conditions: 336 h, pH 6, Trichophyton rubrum, pH 6.0, 22° C., 14 days
Protocol: as §1, §2, §3, §4, §5, §6, §7, §8

[11] = tested on: Epidermophyton floccosum; assay: as above; assay type: cell-based; conditions: 336 h, pH 6, Epidermophyton floccosum, pH 6.0, 22° C., 14 days
Protocol: as §1, §2, §3, §4, §5, §6, §7, §8

[12] = tested on: Microsporum canis; assay: as above; assay type: cell-based; conditions: 336 h, pH 6, Microsporum canis, pH 6.0, 22° C., 14 days
Protocol: as §1, §2, §3, §4, §5, §6, §7, §8

[13] = tested on: Salmonella typhimurium strains TA 1535, TA 1537, TA 1538, TA 98 and TA 100; assay: Potential to cause gene mutations in Salmonella typhimurium; assay type: cell-based; conditions: 3.3-1,000 μg/plate
Protocol: Compound No. 96 was investigated for its potential to cause gene mutations in five Salmonella typhimurium strains TA 1535, TA 1537, TA 1538, TA 98 and TA 100.
The following concentrations were tested, both with metabolic activator (S 9 mix) and without metabolic activator.

[14] = tested on: mice; assay: Determination of the lethal dose on single oral administration; assay type: in vivo; conditions: for LD100: oral, once
Protocol: (§9) Determination of the lethal dose of 1-(2-(2,4-dichlorophenyl)-2-(3-(4-chlorophenylthio)propylamino)ethyl)-1H-imidazole dihydrochloride (compound No. 96) in mice and rats on administration once.
(§10) In each case, oral doses of 0, 500, 1,000 and 3,000 mg/kg of body weight were administered to four groups of female and male animals.
(§11) (Control: double-distilled water)
(§12) The following clinical signs were observed.

[15] = tested on: rats; assay: as above; assay type: in vivo; conditions: for LD100: oral, once
Protocol: as §9, §10, §11, §12

[16] = tested on: mice; assay: Determination of the LD50 by i.v. administration; assay type: in vivo; conditions: i.v. 12.5-100 mg/kg
Protocol: (§13) Determination of the LD50 of 1-(2-(2,4-dichlorophenyl)-2-(3-(4-chlorophenylthio)propylamino)ethyl)-1H-imidazole dihydrochloride (compound No. 96) in mice and rats by i.v. administration. In each case, 0 (0.9% NaCl solution), 12.5, 25.0, 50.0 and 100 mg/kg of body weight were injected i.v. into 5 groups of female and male animals.
as §12

[17] = tested on: rats; assay: Determination of the LD50 by i.v. administration; assay type: in vivo; conditions: i.v. 12.5-100 mg/kg
Protocol: as §13, §12

[18] = Determination of the LD50 by i.v. administration; assay type: in vivo; conditions: in vivo, iv
Protocol: as §13, §12

[19] = oral 0, 500, 1,000 and 3,000 mg/kg

Question: With `Cl.Cl.Clc1ccc(SCCCNC(Cn2ccnc2)c2ccc(Cl)cc2Cl)cc1` (centres unmarked) [Compound 96, 1-(2-(2,4-dichlorophenyl)-2-(3-(4-chlorophenylthio)propylamino)ethyl)-1H-imidazole dihydrochloride] as the compound, how does the MIC [1] read?
Answer: The MIC was 0.39 µg/mL.

Question: And the MIC [2]?
Answer: Its MIC is 0.39 µg/mL.

Question: What about the MIC [3] of the same compound?
Answer: Its MIC is 0.78 µg/mL.

Question: And the MIC [4]?
Answer: Its MIC is 1.56 µg/mL.

Question: What about the MIC [5] of the same compound?
Answer: Its MIC is 0.39 µg/mL.

Question: What about the MIC [6] of the same compound?
Answer: The MIC was 0.39 µg/mL.

Question: What about the MIC [7] of the same compound?
Answer: Its MIC is 1.56 µg/mL.

Question: What about the “MIC Asp.fu.” value [8] of the same compound?
Answer: Its value is 0,78 μg/ml.

Question: And the MIC [9]?
Answer: The MIC was 1.56 µg/mL.

Question: And the MIC [10]?
Answer: The MIC was 0.19 µg/mL.

Question: And the MIC [11]?
Answer: The MIC was 0.19 µg/mL.

Question: And the MIC [12]?
Answer: Its MIC is 0.39 µg/mL.

Question: What about the mutagenic activity ([13]; with metabolic activator (S 9 mix)) of the same compound?
Answer: Its mutagenic activity is “No mutagenic activity whatever was observed”.

Question: And the mutagenic activity ([13]; without metabolic activator)?
Answer: Its mutagenic activity is “No mutagenic activity whatever was observed”.

Question: What about the LD100 ([14]; female) of the same compound?
Answer: Its LD100 is > 1,000 mg/kg.

Question: What about the LD100 ([14]; male) of the same compound?
Answer: The LD100 was greater than 500 mg/kg.

Question: What about the clinical signs [14, 19] of the same compound?
Answer: The clinical signs was “Inactivity, convulsions”.

Question: What about the LD100 ([15]; female) of the same compound?
Answer: The LD100 was greater than 500 mg/kg.

Question: And the LD100 ([15]; male)?
Answer: Its LD100 is > 1,000 mg/kg.

Question: What about the clinical signs [15, 19] of the same compound?
Answer: Its clinical signs is “Inactivity, ruffled fur, convulsions”.

Question: And the clinical signs [16]?
Answer: Its clinical signs is “Inactivity, necrotic tail”.

Question: And the clinical signs [17]?
Answer: The clinical signs was “Inactivity, necrotic tail, convulsions”.

Question: And the LD50 ([18]; mouse, mice, female, range in parentheses)?
Answer: Its LD50 is 84.1 mg/kg.

Question: What about the LD50 ([18]; mouse, mice, male, range in parentheses) of the same compound?
Answer: The LD50 was 42 mg/kg.

Question: And the LD50 ([18]; rat, rats, female, range in parentheses)?
Answer: Its LD50 is 56.1 mg/kg.

Question: What about the LD50 ([18]; rat, rats, male) of the same compound?
Answer: The LD50 was 70.7 mg/kg.
